# According to patent publication US20170340905A1, “MACROCYCLIC KETONE AS MALODOR COUNTERACTING INGREDIENT” (Firmenich SA, priority 2014, published 2017):
# Marks after values point to notes of the source that are not given here.
# Key:
# [1] = Sensory malodor reduction test, Sniffin' Sticks odor pens, bathroom malodor; conditions: for Average Perceived Overall Odor Intensity (APOOI) / Average Perceived Malodor Intensity (APMI): scale 0-10
# Method: (§1) The Compound 1, as defined above, was tested, using current sensory analysis methods, for its ability to reduce the perception of bathroom, tobacco, kitchen, pet and body malodors.
# (§2) In the following description, the test concentration of the malodor sample used in each case was selected so as to provide a perceived malodor intensity, when evaluated in Sniffin' Sticks odor pens as described below, that was approximately of the order of 6 units on the scale described under Section C below.
# Bathroom malodor: 0.3% by weight in propylene glycol
# (§3) The test concentration of the Compound 1 used in each of the malodor reduction tests was selected so as to provide a perceived intensity, when evaluated in Sniffin' Sticks odor pens as described below, that was approximately of the order of 6 units on the scale described under Section C below. The concentration of Compound 1 that was perceived as comprising an odor intensity of about 6 when evaluated in Sniffin' Sticks odor pens was 16% by weight in propylene glycol.
# (§4) Stock solutions were prepared as follows: • Compound 1 32% by weight: 12.8 g of Compound 1 was mixed with 27.2 g of propylene glycol. • Bathroom malodor 0.6% by weight: 0.6 g of bathroom malodor was mixed with 99.4 g of propylene glycol. • Kitchen malodor 60% by weight: 12.0 g of kitchen malodor was mixed with 8.0 g of propylene glycol. • Body malodor 1% by weight: 1.0 g of body malodor was mixed with 99.0 g of propylene glycol. • Pet malodor 1% by weight: 1.0 g of pet malodor was mixed with 99.0 g of propylene glycol. • The tobacco malodor was used as is.
# (§5) Each sensory test comprised 3 samples: a malodor only sample; a test sample comprising a combination of […] and the test malodor; and, a Compound 1 only sample. The samples for the sensory tests were prepared as follows:
# (§6) Malodor only sample: in a separate beaker 3.0 g of malodor stock solution, was mixed with 3.0 g of propylene glycol. Once fully homogenized, 2.0 g of the resulting solution was applied to the absorbent fiber in the body of a Sniffin' Stick odor pen (origin: Burghart Messtechnik GmbH). The odor pen was immediately capped and allowed to equilibrate for 24 hours before use.
# as §6, with “Compound 1” for “Malodor”, “Compound 1” for “malodor”, “solution” for “solution,”
# as §6, with “Test samples:” for “Malodor only sample:”, “Compound 1” for “malodor”, “solution” for “solution,”, “malodor stock solution.” for “propylene glycol.”
# (§7) The samples were assessed by a panel of 19 trained panelists. By “trained panelists” we mean here individuals that had previously been screened for olfactive acuity and were experienced in rating the perfume and malodor intensity. Moreover, the panelists were prior acquainted with the malodor sample before carrying out the malodor reduction efficacy test.
# (§8) Each test comprised a malodor only sample, a Compound 1 only sample, and a test sample that comprised Compound 1 and the malodor. […]
# [2] = Sensory malodor reduction test, Sniffin' Sticks odor pens, tobacco malodor; conditions: for Average Perceived Malodor Intensity (APMI) / Average Perceived Overall Odor Intensity (APOOI): scale 0-10
# Method: as §1
# The tobacco malodor was prepared by extraction of cigarette debris, comprising: ash; filter; and, paper. The debris from 30 smoked Marlboro lied cigarettes (origin: Philip Morris International) was collected in a 500 ml glass powder jar with a screw closure. 300 ml of ethanol was added. The combination was mixed in a Turbula mixer for 8 hours and then filtered through a Whatman Grade 4 filter paper. The filtrate was used as the tobacco malodor.
# as §2
# Tobacco malodor: 50% by weight in propylene glycol
# as §3, §4, §5, §6
# as §6, with “Compound 1” for “Malodor”, “Compound 1” for “malodor”, “solution” for “solution,”
# as §6, with “Test samples:” for “Malodor only sample:”, “Compound 1” for “malodor”, “solution” for “solution,”, “malodor stock solution.” for “propylene glycol.”
# The samples were assessed by a panel of 19 trained panelists. […]
# [3] = Sensory malodor reduction test, Sniffin' Sticks odor pens, body malodor; conditions: for Average Perceived Malodor Intensity (APMI) / Average Perceived Overall Odor Intensity (APOOI): scale 0-10
# Method: as §1, §2
# Body malodor: 0.5% by weight in propylene glycol
# as §3, §4, §5, §6
# as §6, with “Compound 1” for “Malodor”, “Compound 1” for “malodor”, “solution” for “solution,”
# as §6, with “Test samples:” for “Malodor only sample:”, “Compound 1” for “malodor”, “solution” for “solution,”, “malodor stock solution.” for “propylene glycol.”
# as §7, §8
# [4] = test system: Staphylococcus aureus DSMZ 1104; experiment: MIC test in 96 well plates; assay type: cell-based; conditions: S. aureus, associated with hygiene
# Method: (§9) Bacterial solutions of four bacterial strains were prepared for MIC test as follows. Stock cultures stored at -80° C. were subcultured onto agar plate media, and incubated at 37° C. for 24 h to obtain single colonies. Single colonies of the primary cultures were inoculated into broth media and incubated at 37° C., 160 rpm overnight. Aliquots of overnight cultures were inoculated into 50 ml of fresh broth media, and incubated at 37° C., 160 rpm. When the OD reached the target value for each strain (see Table 1), cells were harvested by centrifugation at 5000 rpm for 10 min, and then resuspended in the same fresh broth media at the same volume before the centrifugation. Aliquots (1.1 ml) of each cell suspension were diluted in 200 ml of the same broth media as the bacterial solutions for the MIC test. [table] Sample solutions of casmirone and reference material ([…]) were prepared as follows. Stock solutions of 1% and 20% were prepared in ethanol, and then seven serial dilutions of each stock solution were prepared in ethanol to obtain a total of 16 solutions of casmirone or the reference material. Aliquot (10 μl) of each solution was used for MIC test. The tested final concentrations of each material were 29, 44, 66, 99, 148, 222, 333, 500, 590, 900, 1300, 2000, 3000, 4500, 6700, 10000 ppm. The test material control was trans-hexenal, a known material for MIC tests and control tests (e.g. see Int J Food Microbiol. 2010 January 1;136(3):304-9). MIC test were performed in 96 well plates. […] Column 1 contained bacterial solution only (the positive growth control), and column 12 contained growth media only (the negative growth control). Aliquots (10 μl) of sample solutions were mixed with 190 μl of bacterial solutions in growth media, at concentrations of 10^5 to 10^6 cfu/ml, in wells of the 96 well plates. Three replicates for solution. The 96 wells plates were incubated at 37° C., 160 rpm overnight. After incubation, wells of 96 well plates were examined. Turbid wells were regarded as an indication of microbial growth. Minimal inhibition concentration (MIC) was determined as the lowest concentration where no growth was observed. Average MIC value of the three replicates was calculated against each strain (see Table 3).
# [5] = test system: Staphylococcus haemolyticus ATCC 114126; experiment: MIC test in 96 well plates; assay type: cell-based; conditions: S. haemolyticus, associated with body odor
# Method: as §9
# [6] = test system: Morganella morganii URI62; experiment: MIC test in 96 well plates; assay type: cell-based; conditions: M. morganii, associated with urine/bathroom
# Method: as §9
# [7] = test system: Streptococcus agalactiae URI3; experiment: MIC test in 96 well plates; assay type: cell-based; conditions: S. agalactiae, associated with urine/bathroom
# Method: as §9
# [8] = Sensory malodor reduction test, Sniffin' Sticks odor pens, kitchen malodor; conditions: for Average Perceived Malodor Intensity (APMI) / Average Perceived Overall Odor Intensity (APOOI): scale 0-10
# Method: as §1, §2
# Kitchen malodor: 30% by weight in propylene glycol
# as §3, §4, §5, §6
# as §6, with “Compound 1” for “Malodor”, “Compound 1” for “malodor”, “solution” for “solution,”
# as §6, with “Test samples:” for “Malodor only sample:”, “Compound 1” for “malodor”, “solution” for “solution,”, “malodor stock solution.” for “propylene glycol.”
# as §7, §8
# [9] = Sensory malodor reduction test, Sniffin' Sticks odor pens, pet malodor; conditions: for Average Perceived Malodor Intensity (APMI) / Average Perceived Overall Odor Intensity (APOOI): scale 0-10
# Method: as §1, §2
# Pet malodor: 0.5% by weight, in propylene glycol
# as §3, §4, §5, §6
# as §6, with “Compound 1” for “Malodor”, “Compound 1” for “malodor”, “solution” for “solution,”
# as §6, with “Test samples:” for “Malodor only sample:”, “Compound 1” for “malodor”, “solution” for “solution,”, “malodor stock solution.” for “propylene glycol.”
# as §7, §8
# [10] = Compound 1 + Malodor vs Malodor Only
# [11] = Compound 1 Only: 0.320 g Compound 1, 1.680 g propylene glycol, bathroom malodor test
# [12] = Compound 1 + Malodor: 1.00 g tobacco malodor, 0.32 g Compound 1, 0.68 g propylene glycol
# [13] = Compound 1 Only: 0.32 g Compound 1, 1.68 g propylene glycol, tobacco malodor test
# [14] = Compound 1 + Malodor: 0.01 g body malodor, 0.32 g Compound 1, 1.67 g propylene glycol
# [15] = Compound 1 Only: 0.32 g Compound 1, 1.68 g propylene glycol, body malodor test
# [16] = Compound 1 + Malodor: 0.60 g kitchen malodor, 0.32 g Compound 1, 1.08 g propylene glycol
# [17] = Compound 1 Only: 0.32 g Compound 1, 1.68 g propylene glycol, kitchen malodor test
# [18] = Compound 1 + Malodor: 0.01 g pet malodor, 0.32 g Compound 1, 1.67 g propylene glycol
# [19] = Compound 1 Only: 0.32 g Compound 1, 1.68 g propylene glycol, pet malodor test
smiles,measurement,setting,value
"O=C1CCC=CCCC=CCCC1 [Compound 1, 4,8-cyclododecadien-1-one]",reducing the perceived intensity of bathroom malodor,[1]; [10],efficient
same,Average Perceived Overall Odor Intensity (APOOI),"[1]; Compound 1 + Malodor: 0.006 g bathroom malodor, 0.320 g Compound 1, 1.674 g propylene glycol",5.99
same,Average Perceived Malodor Intensity (APMI),"[1]; Compound 1 + Malodor: 0.006 g bathroom malodor, 0.320 g Compound 1, 1.674 g propylene glycol, 19 panelists",1.61 *
same,Average Perceived Malodor Intensity (APMI),[1]; [11],0.91 *
same,Average Perceived Overall Odor Intensity (APOOI),[1]; [11],5.75
same,reducing the perceived intensity of tobacco malodor,[2]; [10],efficient
same,Average Perceived Malodor Intensity (APMI),[2]; [12],3.35 *
same,Average Perceived Overall Odor Intensity (APOOI),[2]; [12],5.85
same,Average Perceived Malodor Intensity (APMI),[2]; [13],1.27 *
same,Average Perceived Overall Odor Intensity (APOOI),[2]; [13],6.07
same,reducing the perceived intensity of body malodor,[3]; [10],efficient
same,Average Perceived Malodor Intensity (APMI),[3]; [14],2.78 *
same,Average Perceived Overall Odor Intensity (APOOI),[3]; [14],5.61
same,Average Perceived Malodor Intensity (APMI),[3]; [15],0.83 *
same,Average Perceived Overall Odor Intensity (APOOI),[3]; [15],6.39
same,activity in application,[4],(compound 1 is efficiently active in application)
same,MIC,"[4]; Staphylococcus aureus, DSMZ1104, average of three replicates, 37° C. overnight",333 µg/mL
same,activity in application,[5],(compound 1 is efficiently active in application)
same,MIC,"[5]; Staphylococcus haemolyticus, ATCC114126, average of three replicates, 37° C. overnight",345 µg/mL
same,activity in application,[6],(compound 1 is efficiently active in application)
same,MIC,"[6]; Morganella morganii, URI62, average of three replicates, 37° C. overnight",900 µg/mL
same,activity in application,[7],(compound 1 is moderately active in application)
same,MIC,"[7]; Streptococcus agalactiae, URI3, average of three replicates, 37° C. overnight",3430 µg/mL
same,reducing the perceived intensity of kitchen malodor,[8]; [10],efficient
same,Average Perceived Malodor Intensity (APMI),[8]; [16],2.49 *
same,Average Perceived Overall Odor Intensity (APOOI),[8]; [16],5.51
same,Average Perceived Malodor Intensity (APMI),[8]; [17],0.95 *
same,Average Perceived Overall Odor Intensity (APOOI),[8]; [17],5.78
same,reducing the perceived intensity of pet malodor,[9]; [10],efficient
same,Average Perceived Malodor Intensity (APMI),[9]; [18],4.84 *
same,Average Perceived Overall Odor Intensity (APOOI),[9]; [18],6.70
same,Average Perceived Malodor Intensity (APMI),[9]; [19],0.93 *
same,Average Perceived Overall Odor Intensity (APOOI),[9]; [19],6.01
